ChEMBL document CHEMBL5338753, “Stapled Peptides as Direct Inhibitors of Nrf2-sMAF Transcription Factors” (J Med Chem, 2023)
The source made the active and inactive calls. The calls are words filed in the database; no cut-off is given here. Positions of bridges follow the written chain, without caps; N, C: chain ends. Non-standard residues stand in square brackets, D forms with d. Residues, ends and D or L forms follow the SMILES beside them. R5 = C=CCCC[C@@](C)(N)C(=O)O

Key:
Homo sapiens = species on record: Homo sapiens; assay: Inhibition of human recombinant His-MBP-tagged Nrf2/recombinant His-tagged MafG heterodimer interaction with 5' FAM-labeled ARE at 0.2 uM preincubated for 5 mins with Nrf2 under shaking condition followed by MafG addition for 5 mins further incubated with ARE and measured after 10 mins by fluorescence polarization assay; conditions: time 20.0 min
A549 [1] = assay: Downregulation of TXN mRNA level in human A549 cells at 50 uM incubated for 72 hrs by qPCR assay; assay type: functional, cell-based
A549 [2] = assay: Downregulation of GCLC mRNA level in human A549 cells at 50 uM incubated for 72 hrs by qPCR assay; assay type: functional, cell-based
A549 [3] = assay: Antiproliferative activity against human A549 cells assessed as cell death at 1.563 uM incubated for 72 hrs by MTT assay relative to control; assay type: functional
[4] = Hemolytic activity against human red blood cells at 100 uM relative to control; assay type: toxicity, cell-based, Erythrocyte; conditions: red blood cells (erythrocytes), read-out: Activity
A549 [5] = assay: Antiproliferative activity against human A549 cells assessed as cell death at 3.125 uM incubated for 72 hrs by MTT assay relative to control; assay type: functional
A549 [6] = assay: Antiproliferative activity against human A549 cells assessed as cell death at 6.25 uM incubated for 72 hrs by MTT assay relative to control; assay type: functional
A549 [7] = assay: Antiproliferative activity against human A549 cells assessed as cell death at 50 uM incubated for 72 hrs by MTT assay relative to control; assay type: functional
A549 [8] = assay: Synergistic antiproliferative activity against human A549 cells assessed as cell death at 3.125 uM incubated for 72 hrs in presence of 6 uM cisplatin by MTT assay (reference value: 46%); assay type: functional
A549 [9] = assay: Synergistic antiproliferative activity against human A549 cells assessed as cell death at 12.5 uM incubated for 72 hrs in presence of 6 uM cisplatin by MTT assay (reference value: 46%); assay type: functional
A549 [10] = assay: Synergistic antiproliferative activity against human A549 cells assessed as cell death at 12.5 uM incubated for 72 hrs in presence of 12 uM cisplatin by MTT assay (reference value: 66%); assay type: functional
A549 [11] = assay: Synergistic antiproliferative activity against human A549 cells assessed as cell death at 25 uM incubated for 72 hrs in presence of 12 uM cisplatin by MTT assay (reference value: 66%); assay type: functional
A549 [12] = assay: Synergistic antiproliferative activity against human A549 cells assessed as cell death at 50 uM incubated for 72 hrs in presence of 12 uM cisplatin by MTT assay (reference value: 66%); assay type: functional
A549 [13] = assay: Synergistic antiproliferative activity against human A549 cells assessed as combination index at 50 uM incubated for 72 hrs in presence of 6 uM cisplatin by Chou-Talalay method; assay type: functional
A549 [14] = assay: Synergistic antiproliferative activity against human A549 cells assessed as combination index at 100 uM incubated for 72 hrs in presence of 6 uM cisplatin by Chou-Talalay method; assay type: functional
A549 [15] = assay: Synergistic antiproliferative activity against human A549 cells assessed as combination index at 12.5 uM incubated for 72 hrs in presence of 12 uM cisplatin by Chou-Talalay method; assay type: functional
A549 [16] = assay: Synergistic antiproliferative activity against human A549 cells assessed as combination index at 25 uM incubated for 72 hrs in presence of 12 uM cisplatin by Chou-Talalay method; assay type: functional
A549 [17] = assay: Synergistic antiproliferative activity against human A549 cells assessed as combination index at 50 uM incubated for 72 hrs in presence of 12 uM cisplatin by Chou-Talalay method; assay type: functional

Q: For `CC[C@H](C)[C@H](NC(C)=O)C(=O)N[C@H](C(=O)N[C@@H](CCC(=O)O)C(=O)N[C@@H](CC(C)C)C(=O)N[C@@H](CCC(=O)O)C(=O)N[C@]1(C)CCC/C=C\CCC[C@](C)(C(=O)N[C@@H](CC(C)C)C(=O)N[C@@H](CCCCN)C(=O)N[C@@H](CC(=O)O)C(=O)N[C@@H](CCC(=O)O)C(=O)N[C@@H](CCCCN)C(=O)N[C@@H](CCC(=O)O)C(N)=O)NC(=O)[C@H](CC(=O)O)NC(=O)[C@H](CC(C)C)NC(=O)[C@H](CC(=O)O)NC1=O)C(C)C` (Ac-IVELE[R5]DLD[R5]LKDEKE-NH2; staple (Z) 6-10), which inhibition (Homo sapiens) is on record?
A: Active

Q: What about the Activity (A549 [1]) of the same compound?
A: Active

Q: What about the Activity (A549 [2]) of the same compound?
A: Active

Q: What about the Activity (A549 [3]) of the same compound?
A: 4%

Q: What about the hemolysis at 100 µM [4] of the same compound?
A: 0.3%

Q: And the Activity (A549 [5])?
A: 12%

Q: And the Activity (A549 [6])?
A: 17%

Q: And the Activity (A549 [7])?
A: 34%

Q: What about the Activity (A549 [8]) of the same compound?
A: 52%

Q: What about the Activity (A549 [9]) of the same compound?
A: 64%

Q: What about the Activity (A549 [10]) of the same compound?
A: 81%

Q: What about the Activity (A549 [11]) of the same compound?
A: 87%

Q: And the Activity (A549 [12])?
A: 93%

Q: What about the CI (A549 [13]) of the same compound?
A: 0.42

Q: What about the CI (A549 [14]) of the same compound?
A: 0.42

Q: What about the CI (A549 [15]) of the same compound?
A: 0.51

Q: What about the CI (A549 [16]) of the same compound?
A: 0.35

Q: And the CI (A549 [17])?
A: 0.19
